Earlier results in patent US20030091531A1, “Method and composition for insect and animal control” (priority 2001, published 2003).

How the values were obtained:
[1] = unstabilised active; degrades rapidly under ultraviolet light, water, oxygen and soil microbes
[2] = classified by the EPA

SMILES	shelf life [1]	EPA carcinogen classification [2]
CCCCCCCCCC(C)=O [methyl nonyl ketone]	twelve	–
CNC(=O)CSP(=S)(OC)OC [Dimethoate, dimethoate]	–	group 3 carcinogen
